Source: ChEMBL document CHEMBL1138495, “Inhibition of subgenomic hepatitis C virus RNA replication by acridone derivatives: identification of an NS3 helicase inhibitor” (J Med Chem, 2009)
Values after ≈ are worked out from the molar mass of the structure shown. Active and inactive are the calls of the source. The rule behind the calls is not given here.

tested on: Bovine viral diarrhea virus 1; experiment: Antiviral activity against Bovine viral diarrhea virus infected in MDBK cells assessed as inhibition of virus-induced cytopathic effect after 4 to 5 days by microscopy; type: functional, organism-based; details: Bovine viral diarrhea virus isolates and strains

Row | SMILES | EC50
1 | Cn1c2cc(N3CCN(c4ccccn4)CC3)c(N)cc2c(=O)c2c(O)cc(O)cc21 | 0.5 µg/mL (≈ 1.2 µM)
2 | Cn1c2cc(Cl)c(N)cc2c(=O)c2c(O)cc(O)cc21 | 0.4 µg/mL (≈ 1.38 µM)
3 | COc1cc(OC)c2c(=O)c3cc(N)c(Cl)cc3n(C)c2c1 | > 100 µg/mL
4 | COc1cc(OC)c2c(=O)c3cc(N)c(N4CCN(c5ccccn5)CC4)cc3n(C)c2c1 | > 100 µg/mL
5 | COc1cc(O)c2c(=O)c3cc(N)c(N4CCN(c5ccccn5)CC4)cc3n(C)c2c1 | 4 µg/mL (≈ 9.27 µM)
6 | COc1cc(O)c2c(=O)c3cc(N)c(Cl)cc3n(C)c2c1 | 0.7 µg/mL (≈ 2.3 µM)

target: DNA topoisomerase 2-alpha (Homo sapiens) (UniProt P11388); experiment: Inhibition of human topoisomerase 2; details: not given
Sequence (P11388 whole entry): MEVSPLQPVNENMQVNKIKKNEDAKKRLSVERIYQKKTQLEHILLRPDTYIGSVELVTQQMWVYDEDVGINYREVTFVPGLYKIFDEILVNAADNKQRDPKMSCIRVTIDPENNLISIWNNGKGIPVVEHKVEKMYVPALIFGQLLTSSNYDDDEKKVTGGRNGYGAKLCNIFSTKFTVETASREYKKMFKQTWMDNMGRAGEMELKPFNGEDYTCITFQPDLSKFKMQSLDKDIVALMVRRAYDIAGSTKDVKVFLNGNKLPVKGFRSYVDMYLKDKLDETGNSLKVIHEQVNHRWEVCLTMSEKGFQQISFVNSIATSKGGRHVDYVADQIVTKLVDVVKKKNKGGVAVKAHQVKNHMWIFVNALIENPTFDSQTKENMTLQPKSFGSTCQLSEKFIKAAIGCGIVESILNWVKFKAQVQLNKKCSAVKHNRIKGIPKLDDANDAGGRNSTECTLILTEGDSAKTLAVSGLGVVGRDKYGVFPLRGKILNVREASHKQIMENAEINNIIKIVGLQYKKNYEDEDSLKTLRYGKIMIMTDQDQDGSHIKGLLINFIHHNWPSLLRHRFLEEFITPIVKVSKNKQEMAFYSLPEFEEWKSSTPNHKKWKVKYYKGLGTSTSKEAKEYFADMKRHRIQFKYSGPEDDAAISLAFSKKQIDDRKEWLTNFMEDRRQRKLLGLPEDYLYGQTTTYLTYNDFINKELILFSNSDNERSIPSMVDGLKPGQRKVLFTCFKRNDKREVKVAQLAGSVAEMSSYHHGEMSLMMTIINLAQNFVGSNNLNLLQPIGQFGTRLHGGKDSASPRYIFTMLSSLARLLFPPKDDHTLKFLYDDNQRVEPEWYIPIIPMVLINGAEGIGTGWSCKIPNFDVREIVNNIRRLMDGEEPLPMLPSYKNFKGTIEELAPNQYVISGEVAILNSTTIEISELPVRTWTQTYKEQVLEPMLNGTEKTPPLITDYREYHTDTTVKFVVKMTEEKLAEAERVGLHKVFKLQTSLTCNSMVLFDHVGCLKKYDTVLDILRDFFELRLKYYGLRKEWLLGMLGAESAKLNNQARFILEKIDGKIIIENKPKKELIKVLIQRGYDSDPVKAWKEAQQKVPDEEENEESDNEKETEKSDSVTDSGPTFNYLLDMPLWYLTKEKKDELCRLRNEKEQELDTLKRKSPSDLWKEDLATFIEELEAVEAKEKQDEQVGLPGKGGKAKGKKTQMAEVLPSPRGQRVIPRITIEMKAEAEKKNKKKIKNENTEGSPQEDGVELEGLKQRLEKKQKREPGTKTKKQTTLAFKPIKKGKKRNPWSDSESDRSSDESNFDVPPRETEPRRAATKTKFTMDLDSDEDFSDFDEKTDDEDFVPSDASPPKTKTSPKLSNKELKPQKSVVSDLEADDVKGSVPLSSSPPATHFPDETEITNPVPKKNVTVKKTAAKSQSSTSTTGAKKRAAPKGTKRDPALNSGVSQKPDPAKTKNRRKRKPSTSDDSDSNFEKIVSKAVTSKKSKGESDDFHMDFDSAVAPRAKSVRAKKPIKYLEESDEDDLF

Row | SMILES | Activity
7 | Cn1c2cc(N3CCN(c4ccccn4)CC3)c(N)cc2c(=O)c2c(O)cc(O)cc21 | inactive
8 | Cn1c2cc(Cl)c(N)cc2c(=O)c2c(O)cc(O)cc21 | inactive
9 | COc1cc(OC)c2c(=O)c3cc(N)c(N4CCN(c5ccccn5)CC4)cc3n(C)c2c1 | inactive

tested on: Hepatitis C virus; experiment: Antiviral activity against HCV infected in human HuH5.2 assessed as inhibition of viral RNA synthesis after 4 days by Steady-Glo-luciferase assay; type: functional, organism-based, Hepacivirus hominis; details: Huh-5-2, 96 h

Row | SMILES | EC50
10 | Cn1c2cc(N3CCN(c4ccccn4)CC3)c(N)cc2c(=O)c2c(O)cc(O)cc21 | 1.7 µg/mL (≈ 4.07 µM)
11 | Cn1c2cc(Cl)c(N)cc2c(=O)c2c(O)cc(O)cc21 | 1.48 µg/mL (≈ 5.09 µM)
12 | Cn1c2cc(N3CCN(c4nc5ccccc5o4)CC3)c(N)cc2c(=O)c2c(O)cc(O)cc21 | 17 µg/mL (≈ 37.2 µM)
13 | COc1cc(O)c2c(=O)c3cc(N)c(N4CCN(c5ccccc5)CC4)cc3n(C)c2c1 | 2.03 µg/mL (≈ 4.72 µM)
14 | COc1cc(O)c2c(=O)c3cc(N)c(N4CCN(c5ccccn5)CC4)cc3n(C)c2c1 | 13 µg/mL (≈ 30.1 µM)
15 | COc1cc(O)c2c(=O)c3cc(N)c(Cl)cc3n(C)c2c1 | 14 µg/mL (≈ 45.9 µM)

Other lines, results leading:

Row | EC50 | SMILES
16 | 5 µg/mL (≈ 17.5 µM) | COc1cc2c(cc1N)c(=O)c1c(O)cc(O)cc1n2C
17 | 5.7 µg/mL (≈ 18.7 µM) | COc1cc(OC)c2c(=O)c3cc(N)c(Cl)cc3[nH]c2c1
18 | > 50 µg/mL | COc1cc(OC)c2c(=O)c3cc(N)c(N4CCN(c5ncccn5)CC4)cc3n(C)c2c1
19 | 20 µg/mL (≈ 62.7 µM) | COc1cc(OC)c2c(=O)c3cc(N)c(Cl)cc3n(C)c2c1
20 | 1.6 µg/mL (≈ 3.59 µM) | COc1cc(OC)c2c(=O)c3cc(N)c(N4CCN(c5ccccn5)CC4)cc3n(C)c2c1

tested on: Hepacivirus hominis; experiment: Inhibition of HCV recombinant NS5B RNA polymerase expressed in Escherichia coli up to 100 uM by liquid scintillation counter; details: not given

Row | SMILES | Activity
21 | Cn1c2cc(N3CCN(c4ccccn4)CC3)c(N)cc2c(=O)c2c(O)cc(O)cc21 | inactive
22 | Cn1c2cc(Cl)c(N)cc2c(=O)c2c(O)cc(O)cc21 | inactive
23 | Cn1c2cc(N3CCN(c4nc5ccccc5o4)CC3)c(N)cc2c(=O)c2c(O)cc(O)cc21 | inactive
24 | COc1cc(O)c2c(=O)c3cc(N)c(N4CCN(c5ccccc5)CC4)cc3n(C)c2c1 | inactive
25 | COc1cc(O)c2c(=O)c3cc(N)c(N4CCN(c5ccccn5)CC4)cc3n(C)c2c1 | inactive
26 | COc1cc(O)c2c(=O)c3cc(N)c(Cl)cc3n(C)c2c1 | inactive

Other lines, results leading:

Row | Activity | SMILES
27 | inactive | COc1cc2c(cc1N)c(=O)c1c(O)cc(O)cc1n2C
28 | inactive | COc1cc(OC)c2c(=O)c3cc(N)c(Cl)cc3[nH]c2c1
29 | inactive | COc1cc(OC)c2c(=O)c3cc(N)c(N4CCN(c5ncccn5)CC4)cc3n(C)c2c1
30 | inactive | COc1cc(OC)c2c(=O)c3cc(N)c(Cl)cc3n(C)c2c1
31 | inactive | COc1cc(OC)c2c(=O)c3cc(N)c(N4CCN(c5ccccn5)CC4)cc3n(C)c2c1

tested on: Vero; experiment: Cytostatic activity against african green monkey Vero cells; type: ADME, cell-based; details: chlorocebus sabaeus

Row | SMILES | Activity
32 | COc1cc(OC)c2c(=O)c3cc(N)c(N4CCN(c5ccccn5)CC4)cc3n(C)c2c1 | Toxic

tested on: not listed separately; experiment: Cytostatic activity against human HuH5.2 after 3 days by MTS/PMS assay; type: ADME, Huh-5-2; details: HuH5.2 cells

Row | SMILES | CC50 at 72 h
33 | Cn1c2cc(N3CCN(c4ccccn4)CC3)c(N)cc2c(=O)c2c(O)cc(O)cc21 | 21 µg/mL (≈ 50.3 µM)
34 | Cn1c2cc(Cl)c(N)cc2c(=O)c2c(O)cc(O)cc21 | 3 µg/mL (≈ 10.3 µM)
35 | COc1cc2c(cc1N)c(=O)c1c(O)cc(O)cc1n2C | 26 µg/mL (≈ 90.8 µM)
36 | COc1cc(OC)c2c(=O)c3cc(N)c(Cl)cc3[nH]c2c1 | 13 µg/mL (≈ 42.7 µM)
37 | COc1cc(OC)c2c(=O)c3cc(N)c(N4CCN(c5ncccn5)CC4)cc3n(C)c2c1 | > 50 µg/mL
38 | Cn1c2cc(N3CCN(c4nc5ccccc5o4)CC3)c(N)cc2c(=O)c2c(O)cc(O)cc21 | > 50 µg/mL
39 | COc1cc(O)c2c(=O)c3cc(N)c(N4CCN(c5ccccc5)CC4)cc3n(C)c2c1 | 8.5 µg/mL (≈ 19.7 µM)
40 | COc1cc(OC)c2c(=O)c3cc(N)c(Cl)cc3n(C)c2c1 | > 50 µg/mL
41 | COc1cc(OC)c2c(=O)c3cc(N)c(N4CCN(c5ccccn5)CC4)cc3n(C)c2c1 | 50 µg/mL (≈ 112 µM)
42 | COc1cc(O)c2c(=O)c3cc(N)c(N4CCN(c5ccccn5)CC4)cc3n(C)c2c1 | > 50 µg/mL
43 | COc1cc(O)c2c(=O)c3cc(N)c(Cl)cc3n(C)c2c1 | 41 µg/mL (≈ 135 µM)

tested on: not listed separately; experiment: Cytotoxicity against MDBK cells after 3 days by MTS/PMS method; type: cell-based, Bos taurus; details: cattle

Row | SMILES | CC50 at 72 h
44 | Cn1c2cc(N3CCN(c4ccccn4)CC3)c(N)cc2c(=O)c2c(O)cc(O)cc21 | > 100 µg/mL
45 | Cn1c2cc(Cl)c(N)cc2c(=O)c2c(O)cc(O)cc21 | 5 µg/mL (≈ 17.2 µM)
46 | COc1cc(OC)c2c(=O)c3cc(N)c(Cl)cc3n(C)c2c1 | 20 µg/mL (≈ 62.7 µM)
47 | COc1cc(OC)c2c(=O)c3cc(N)c(N4CCN(c5ccccn5)CC4)cc3n(C)c2c1 | > 100 µg/mL
48 | COc1cc(O)c2c(=O)c3cc(N)c(N4CCN(c5ccccn5)CC4)cc3n(C)c2c1 | > 100 µg/mL
49 | COc1cc(O)c2c(=O)c3cc(N)c(Cl)cc3n(C)c2c1 | 14 µg/mL (≈ 45.9 µM)

tested on: not listed separately; experiment: Inhibition of ATPase activity of HCV […] expressed in Escherichia coli; design: species or system Hepacivirus hominis; details: not given

Row | SMILES | IC50
50 | Cn1c2cc(N3CCN(c4ccccn4)CC3)c(N)cc2c(=O)c2c(O)cc(O)cc21 | > 1000 µM
51 | Cn1c2cc(Cl)c(N)cc2c(=O)c2c(O)cc(O)cc21 | > 1000 µM
52 | Cn1c2cc(N3CCN(c4nc5ccccc5o4)CC3)c(N)cc2c(=O)c2c(O)cc(O)cc21 | > 1000 µM
53 | COc1cc(O)c2c(=O)c3cc(N)c(N4CCN(c5ccccc5)CC4)cc3n(C)c2c1 | > 1000 µM
54 | COc1cc(O)c2c(=O)c3cc(N)c(N4CCN(c5ccccn5)CC4)cc3n(C)c2c1 | > 1000 µM
55 | COc1cc(O)c2c(=O)c3cc(N)c(Cl)cc3n(C)c2c1 | > 1000 µM

The remaining lines, values ahead:

Row | IC50 | SMILES
56 | > 1000 µM | COc1cc2c(cc1N)c(=O)c1c(O)cc(O)cc1n2C
57 | > 1000 µM | COc1cc(OC)c2c(=O)c3cc(N)c(Cl)cc3[nH]c2c1
58 | > 1000 µM | COc1cc(OC)c2c(=O)c3cc(N)c(N4CCN(c5ncccn5)CC4)cc3n(C)c2c1
59 | > 1000 µM | COc1cc(OC)c2c(=O)c3cc(N)c(Cl)cc3n(C)c2c1
60 | > 1000 µM | COc1cc(OC)c2c(=O)c3cc(N)c(N4CCN(c5ccccn5)CC4)cc3n(C)c2c1

tested on: Vero; experiment: Cytostatic activity against african green monkey Vero cells in presence of guanosine; type: ADME, cell-based; details: chlorocebus sabaeus

Row | SMILES | Activity
61 | COc1cc(OC)c2c(=O)c3cc(N)c(N4CCN(c5ccccn5)CC4)cc3n(C)c2c1 | Non-toxic
